Test systems include HOP-62; NCI-H23; Malme-3M; HCC 2998; ACHN; T47D; KM12; PC-3; SF-295; OVCAR-3; NCI/ADR-RES; HT-29; OVCAR-5; DU-145; CAKI-1; TK-10; NCI-H460; MOLT-4; UACC-257; 786-0.
Common to all, as to assay: inhibition of tumour cell growth, NCI panel, 48 h

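All cell lines were grown in 96-well plates and treated with compound for 48 hours. The concentration for 50% growth inhibition is given as GI50.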 Activity calls are given as the source filed them. Rule as the data show it: active = GI50 up to about 1.1 µM and inactive = higher.

As for `O=C1/C(=C/c2ccc([N+](=O)[O-])cc2)CNC/C1=C\c1ccc([N+](=O)[O-])cc1`, the GI50 with HOP-62 is 4.55 µM (inactive); in the test with NCI-H23, 4.62 µM (inactive); in the test on Malme-3M, 46.5 µM (inactive); with HCC 2998, 5.62 µM (inactive); with ACHN, 12.3 µM (inactive); in the test on T47D, 18.7 µM (inactive). Moreover, the GI50 is 1.36 µM (inactive) in the test with KM12; 6.7 µM (inactive) in the test on PC-3; 10.2 µM (inactive) in the test on SF-295; 2.45 µM (inactive) with OVCAR-3; 5.09 µM (inactive) in the test on NCI/ADR-RES; 1.41 µM (inactive) in the test on HT-29. In addition, the GI50 with OVCAR-5 is 22.8 µM (inactive); with DU-145, 10.8 µM (inactive); in the test on CAKI-1 it was 1.79 µM (inactive); in the test on TK-10, 33.1 µM (inactive); with NCI-H460 it was 2.59 µM (inactive); in the test on MOLT-4, 2.22 µM (inactive). In addition, the values for the GI50 in the test on UACC-257 and in the test on 786-0 were 45.5 µM (inactive) and 1.13 µM (inactive), respectively.
In the case of `CCOP(=O)(OCC)/C(=C/n1c(=S)[nH]c2ccccc21)C(=O)OC`, the GI50 was > 100 µM (inactive) in the test on HOP-62; > 100 µM (inactive) with NCI-H23; > 100 µM (inactive) in the test with Malme-3M; 51.9 µM (inactive) in the test with HCC 2998; > 100 µM (inactive) in the test on ACHN; > 100 µM (inactive) in the test on T47D. Further, the GI50 in the test on KM12 is > 100 µM (inactive); with PC-3 it was > 100 µM (inactive); with SF-295, > 100 µM (inactive); in the test with OVCAR-3, 0.0311 µM (active); in the test on NCI/ADR-RES it was > 100 µM (inactive); with HT-29, > 100 µM (inactive). The GI50 with OVCAR-5 was > 100 µM (inactive); with DU-145 it was > 100 µM (inactive); in the test on CAKI-1, > 100 µM (inactive); in the test on NCI-H460 it was 10 µM (inactive); in the test with MOLT-4, > 100 µM (inactive); in the test on UACC-257 it was > 100 µM (inactive). Besides, the GI50 in the test with 786-0 was > 100 µM (inactive).
For `Oc1ccc(-c2ccccc2)nn1`, the GI50 in the test with HOP-62, in the test on NCI-H23, with Malme-3M, in the test with HCC 2998, with ACHN and in the test with T47D was > 100 µM (inactive) in each case. Besides, the GI50 in the test with KM12, in the test on PC-3, with SF-295, in the test with OVCAR-3, in the test on NCI/ADR-RES and in the test on HT-29 was > 100 µM (inactive) each time. In addition, the GI50 with OVCAR-5, with DU-145, in the test on CAKI-1, with TK-10, with NCI-H460 and in the test on MOLT-4 was > 100 µM (inactive) each time. The GI50 in the test with UACC-257 and with 786-0 was > 100 µM (inactive) each time.
`CC(=O)OC1COC(n2nc(N)nc2C)C(OC(C)=O)C1OC(C)=O` (stereo not given): the GI50 in the test on HOP-62, in the test on NCI-H23, in the test with Malme-3M, with HCC 2998, with ACHN and in the test with T47D was > 100 µM (inactive) throughout. Besides, the GI50 with KM12, with PC-3, with SF-295, with OVCAR-3, in the test on NCI/ADR-RES and in the test with HT-29 was > 100 µM (inactive) each time. Moreover, the GI50 in the test on OVCAR-5, with DU-145, in the test with CAKI-1, with TK-10, in the test on NCI-H460 and in the test on MOLT-4 was > 100 µM (inactive) each time. The GI50 in the test with UACC-257 and in the test on 786-0 was > 100 µM (inactive) each time.
For `COc1nc2c(c(=O)n1C)N(C(C)=O)C1C(N2)OCC(OC(C)=O)C1OC(C)=O` (stereo not given), the GI50 in the test with HOP-62, in the test on NCI-H23, in the test with Malme-3M, in the test with HCC 2998, in the test with ACHN and in the test with T47D was > 10 µM (inactive) in each case. Also, the GI50 with KM12, in the test on PC-3, in the test on SF-295, in the test with OVCAR-3, in the test with NCI/ADR-RES and with HT-29 was > 10 µM (inactive) each time. The GI50 in the test with OVCAR-5, in the test with DU-145, in the test with CAKI-1, with TK-10, in the test with NCI-H460 and with MOLT-4 was > 10 µM (inactive) in each case. The GI50 in the test with UACC-257 and with 786-0 was > 10 µM (inactive) each time.
`CSC1(SC)CCCCCCCCCCC1`: the GI50 in the test on HOP-62 is 49.7 µM (inactive); in the test on NCI-H23 it was 68.9 µM (inactive); in the test with Malme-3M, 25.5 µM (inactive); in the test on HCC 2998 it was 20.4 µM (inactive); in the test on ACHN it was 34.2 µM (inactive); in the test on T47D, 25 µM (inactive). For the same compound, the GI50 in the test with KM12 was 41.7 µM (inactive); in the test with PC-3, 40.9 µM (inactive); with SF-295 it was 37.3 µM (inactive); in the test on OVCAR-3, 27.8 µM (inactive); in the test on NCI/ADR-RES, 41.2 µM (inactive); in the test with HT-29, 31.7 µM (inactive). The GI50 is 53.2 µM (inactive) in the test on OVCAR-5; 55.3 µM (inactive) with DU-145; 58.1 µM (inactive) in the test with CAKI-1; 90.2 µM (inactive) in the test with TK-10; 29.8 µM (inactive) in the test with NCI-H460; 33.7 µM (inactive) in the test with MOLT-4. In addition, the GI50 with UACC-257 is 27.5 µM (inactive); in the test on 786-0 it was 37.1 µM (inactive).
With `COc1ccc2c(c1)/C(=C(\C(Cl)=C(Cl)Cl)[N+](=O)[O-])N2`, the GI50 in the test on HOP-62 is > 100 µM (inactive); in the test on NCI-H23, 87.7 µM (inactive); with Malme-3M, 88.9 µM (inactive); with HCC 2998 it was > 100 µM (inactive); with ACHN, > 100 µM (inactive); with T47D, 67.3 µM (inactive). Moreover, the GI50 with KM12 is > 100 µM (inactive); in the test with PC-3 it was 72.1 µM (inactive); in the test on SF-295, 62.4 µM (inactive); in the test on OVCAR-3, 28.2 µM (inactive); in the test with NCI/ADR-RES, 79.8 µM (inactive); in the test with HT-29, > 100 µM (inactive). For the same compound, the GI50 with OVCAR-5 was > 100 µM (inactive); in the test with DU-145, > 100 µM (inactive); with CAKI-1 it was 90.6 µM (inactive); in the test on TK-10, > 100 µM (inactive); with NCI-H460, > 100 µM (inactive); in the test on MOLT-4 it was 24.2 µM (inactive). Moreover, the GI50 is > 100 µM (inactive) in the test with UACC-257 and 69.8 µM (inactive) in the test with 786-0.
For `O=C([O-])C(O)C(O)C(O)C(O)C(=O)O.[K+]` (stereo not given), the GI50 with HOP-62, in the test with NCI-H23, in the test with Malme-3M, in the test on HCC 2998, with ACHN and with T47D was > 100 µM (inactive) in each case. Besides, the GI50 in the test with KM12, in the test with PC-3, in the test on SF-295, in the test with OVCAR-3, with NCI/ADR-RES and in the test with HT-29 was > 100 µM (inactive) each time. Also, the GI50 with OVCAR-5, in the test on DU-145, in the test on CAKI-1, in the test on NCI-H460, in the test with MOLT-4 and in the test on UACC-257 was > 100 µM (inactive) each time. Also, the GI50 with 786-0 was > 100 µM (inactive).
As for `CS/C(=N\S(=O)(=O)c1ccc(Cl)cc1)NCCCCN/C(=N/S(=O)(=O)c1ccc(Cl)cc1)SC`, the GI50 in the test on HOP-62, with Malme-3M, with HCC 2998, with ACHN, in the test on T47D and in the test on PC-3 was > 100 µM (inactive) in each case. Besides, the GI50 with SF-295, with OVCAR-3, with NCI/ADR-RES, with HT-29, with OVCAR-5 and in the test on DU-145 was > 100 µM (inactive) in each case. The GI50 was > 100 µM (inactive) in the test with CAKI-1; > 100 µM (inactive) in the test on TK-10; > 100 µM (inactive) in the test on NCI-H460; > 10 µM (inactive) with MOLT-4; > 100 µM (inactive) in the test on UACC-257; 44.5 µM (inactive) with 786-0.
On to `COc1ccc2c(c1)C1Oc3ccccc3CC1(O)CO2` (stereo not given), for which the GI50 in the test on HOP-62, in the test on NCI-H23, in the test with Malme-3M, in the test with HCC 2998, in the test with ACHN and in the test on T47D was > 100 µM (inactive) throughout. The GI50 in the test on KM12, in the test with PC-3, in the test with SF-295, in the test on OVCAR-3, in the test with NCI/ADR-RES and with HT-29 was > 100 µM (inactive) each time. In addition, the GI50 with OVCAR-5, in the test on DU-145, in the test with CAKI-1, in the test on TK-10, in the test with MOLT-4 and with UACC-257 was > 100 µM (inactive) throughout. For the same compound, in the test on 786-0, the GI50 is > 100 µM (inactive).

Source of the values: ChEMBL document CHEMBL1201862, “PubChem BioAssay data set” (2004).
